Reference: patent publication US20080214555A1 (priority 2007, published 2008)

Assays:
[1] = background statement; cited from earlier work
[2] = system: patients with non-ST elevation acute coronary syndrome; experiment: MERLIN-TIMI 36: HbA1c and hyperglycemia; format: in vivo, human
From the text: HbA1c data are reported as least-square means. Patients categorized as “diabetic” had been diagnosed as diabetic before or at the time of randomization. Patients categorized as “no diabetes” had not been diagnosed as diabetic before or at the time of randomization. Some patients characterized as “no diabetes” may have been diagnosed as “diabetic” during the trial; however, these patients are still listed in the “no diabetes” category in FIG. 4B.

[3] = system: patients with non-ST elevation acute coronary syndrome; experiment: MERLIN-TIMI 36: arrhythmias on 7 day continuous ECG (Holter) recording; format: in vivo, human
Description: Continuous ECG (Holter) recording was performed for the first 7 days after randomization. Because of the known prolongation of the QT interval with ranolazine, analyses of a prespecified set of arrhythmias were a major objective of the trial. All arrhythmias were evaluated in the TIMI ECG Core Laboratory by cardiologists blinded to treatment and outcomes.
Continuous ECG (cECG or Holter) recording was performed for the first 7 days after randomization. Prespecified arrhythmia analyses were evaluated by a core laboratory blinded to treatment and outcomes.

[4] = system: patients with non-ST elevation acute coronary syndrome; experiment: MERLIN-TIMI 36: Seattle Angina Questionnaire scores at 4 months; format: in vivo, human; conditions: ITT
From the text: The MERLIN-TIMI 36 secondary efficacy endpoint (ITT) Seattle Angina Questionnaire scores at 4 months for anginal frequency scale are shown in Table 16 below, and scores for physical limitation scale are shown in Table 17 below.

[5] = Baseline (in-hospital visit prior to randomization), all patients dosed, n = 3268
[6] = Diabetes at enrollment, n = 1098, Baseline
[7] = Diabetes at enrollment, n = 1098, Final Visit
[8] = Diabetes at enrollment, n = 1098, Month 4
[9] = Diabetes at enrollment, n = 1098, Month 8
[10] = Diabetes at enrollment, n = 1098, Month 16
[11] = Final Visit, all patients dosed, n = 3268
[12] = Month 4, all patients dosed, n = 3268
[13] = Month 8, all patients dosed, n = 3268
[14] = Month 16, all patients dosed, n = 3268
[15] = No Diabetes at enrollment, n = 2170, Baseline
[16] = No Diabetes at enrollment, n = 2170, Final Visit
[17] = No Diabetes at enrollment, n = 2170, Month 4
[18] = No Diabetes at enrollment, n = 2170, Month 8
[19] = No Diabetes at enrollment, n = 2170, Month 16
[20] = at 4 months, 4306 patients with serial measurements
[21] = patients with DM treated with ranolazine
[22] = Example 8 table, first 7 days, n = 3162
[23] = Table 24, all patients dosed, n = 3268
[24] = incidence of ventricular tachyarrhythmias table

## COc1ccccc1OCC(O)CN1CCN(CC(=O)Nc2c(C)cccc2C)CC1 (racemic) [Ranolazine, (±)-N-(2,6-dimethylphenyl)-4-[2-hydroxy-3-(2-methoxyphenoxy)-propyl]-1-piperazineacetamide]
[1]
  Prolonging the QTc interval: 2 to 5 ms
[2]; [5]
  Patients with HbA1C ≧7%, number: 655
  Patients with HbA1C ≧7%, proportion: (24%)
[2]; [6]
  Patients with HbA1C ≧7%, number: 542
  Patients with HbA1C ≧7%, proportion: (57%)
[2]; [7]
  Patients with HbA1C ≧7%, number: 324
  Patients with HbA1C ≧7%, proportion: (42%)
[2]; [8]
  Patients with HbA1C ≧7%, number: 326
  Patients with HbA1C ≧7%, proportion: (41%)
[2]; [9]
  Patients with HbA1C ≧7%, number: 263
  Patients with HbA1C ≧7%, proportion: (44%)
[2]; [10]
  Patients with HbA1C ≧7%, number: 63
  Patients with HbA1C ≧7%, proportion: (48%)
[2]; [11]
  Patients with HbA1C ≧7%, number: 416
  Patients with HbA1C ≧7%, proportion: (17%)
[2]; [12]
  Patients with HbA1C ≧7%, number: 404
  Patients with HbA1C ≧7%, proportion: (17%)
[2]; [13]
  Patients with HbA1C ≧7%, number: 335
  Patients with HbA1C ≧7%, proportion: (18%)
[2]; [14]
  Patients with HbA1C ≧7%, number: 84
  Patients with HbA1C ≧7%, proportion: (20%)
[2]; [15]
  Patients with HbA1C ≧7%, number: 113
  Patients with HbA1C ≧7%, proportion: (6%)
[2]; [16]
  Patients with HbA1C ≧7%, number: 92
  Patients with HbA1C ≧7%, proportion: (6%)
[2]; [17]
  Patients with HbA1C ≧7%, number: 78
  Patients with HbA1C ≧7%, proportion: (5%)
[2]; [18]
  Patients with HbA1C ≧7%, number: 72
  Patients with HbA1C ≧7%, proportion: (6%)
[2]; [19]
  Patients with HbA1C ≧7%, number: 21
  Patients with HbA1C ≧7%, proportion: (7%)
[2]; [20]
  HbA1c (least-square mean): 5.9%
  HbA1c change from baseline: −0.30%
[2]; diabetic patients, by 1 year of follow-up
  Worsening of hyperglycemia (>1% increase in HbA1c): 14.2%
[2]; diabetic patients, ranolazine vs placebo, 95% CI 0.51, 0.77
  HR, worsening of hyperglycemia: 0.63
[2]; patients with DM
  Reported hypoglycemia: 3%
[2]; [21]
  HbA1c after decline: 6.8%
  HbA1c Δ: −0.64%
[2]; patients with DM treated with ranolazine, starting value
  HbA1c before decline: 7.2%
[2]; patients with DM, at 4 months
  Patients achieving an HbA1c <7%: 59%
[2]; patients without DM at randomization or baseline (fasting glucose <100 mg/dL and HbA1c <6%)
  Incidence of new fasting glucose >110 mg/dL or HbA1c ≧6%: 31.8%
[2]; patients without DM, ranolazine vs placebo, 95% CI 0.53, 0.88
  HR, new fasting glucose >110 mg/dL or HbA1c ≧6%: 0.68
[3]; Example 8
  Episode of ventricular arrhythmia lasting >=8 beats, %: 5.5%
  Episode of ventricular arrhythmia lasting >=8 beats, number of patients: 175
  New-onset atrial fibrillation, %: 1.7%
  New-onset atrial fibrillation, number of patients: 55
  Pauses >=3 seconds, %: 3.1%
  Pauses >=3 seconds, number of patients: 97
  Supraventricular tachycardia, %: 43.2%
  Supraventricular tachycardia, number of patients: 1413
[3]; [22]
  Any ventricular tachycardia >= 3 beats, %: (29.0) %
  Any ventricular tachycardia >= 3 beats, number: 948
  Brady, Complete heart block, or Pause >= 2.5 sec, %: (38.5) %
  Brady, Complete heart block, or Pause >= 2.5 sec, number: 1257
  Bradycardia < 45 bpm for at least 4 beats, %: (37.8) %
  Bradycardia < 45 bpm for at least 4 beats, number: 1236
  Clinically Significant Arrhythmia on Holter, %: (71.3) %
  Clinically Significant Arrhythmia on Holter, number: 2330
  Pause >3 secs, %: (3.1) %
  Pause >3 secs, number: 97
  Pause >3 secs: AV node block, %: (1.0) %
  Pause >3 secs: AV node block, number: 31
  Pause >3 secs: Other, %: (0.1) %
  Pause >3 secs: Other, number: 2
  Pause >3 secs: Sinoatrial node block, %: (2.0) %
  Pause >3 secs: Sinoatrial node block, number: 64
  Polymorphic VT >= 8 beats, %: (1.2) %
  Polymorphic VT >= 8 beats, number: 38
  Sustained VT (>=30 secs), %: (0.44) %
  Sustained VT (>=30 secs), number: 14
  Sustained VT (>=30 secs): Monomorphic, %: (0.12) %
  Sustained VT (>=30 secs): Monomorphic, number: 4
  Sustained VT (>=30 secs): Polymorphic, %: (0.32) %
  Sustained VT (>=30 secs): Polymorphic, number: 10
  Triplets, %: (46.9) %
  Triplets, number: 1532
  VT >= 4 beats, %: (23.6) %
  VT >= 4 beats, number: 772
  VT >= 8 beats (<30 secs), %: (5.5) %
  VT >= 8 beats (<30 secs), number: 175
[3]; Example 9
  Episode of ventricular tachycardia lasting >8 beats, %: 5.3%
  Episode of ventricular tachycardia lasting >8 beats, number of patients: 166
  New-onset atrial fibrillation, %: 1.7%
  New-onset atrial fibrillation, number of patients: 55
  Pauses >3 seconds, %: 3.1%
  Pauses >3 seconds, number of patients: 97
  Supraventricular tachycardia, %: 44.7%
  Supraventricular tachycardia, number of patients: 1413
[3]; No. of beats ≧8
  Incidence of ventricular tachycardia: 5.3%
[3]; No. of beats ≧10
  Incidence of ventricular tachycardia: 3.5%
[3]; No. of beats ≧15
  Incidence of ventricular tachycardia: 1.3%
[3]; No. of beats ≧20
  Incidence of ventricular tachycardia: 0.9%
[3]; [23]
  Any Clinically Significant Arrhythmia during 7 day Holter, %: (71.3%)
  Any Clinically Significant Arrhythmia during 7 day Holter, number: 2330
  Bradycardic episode during 7 day Holter, %: (38.5%)
  Bradycardic episode during 7 day Holter, number: 1257
  New onset atrial fibrillation during 7 day Holter, %: (1.7%)
  New onset atrial fibrillation during 7 day Holter, number: 55
  Supraventricular tachycardia (any SVT >= 120 bpm) during 7 day Holter, %: (43.2%)
  Supraventricular tachycardia (any SVT >= 120 bpm) during 7 day Holter, number: 1413
  Ventricular tachycardia (any VT >= 100 bpm >= 3 beats) during 7 day Holter, %: (29.0%)
  Ventricular tachycardia (any VT >= 100 bpm >= 3 beats) during 7 day Holter, number: 948
[3]; [24]
  Polymorphic VT >= 8 beats on cECG, %: (1.2) %
  Sustained VT (>=30 sec) on cECG, %: (0.44) %
  VT ≧ 3 beats (≧100 b/m) on cECG, %: (52.1) %
  VT ≧ 4 beats (≧100 b/m) on cECG, %: (20.9) %
  VT ≧ 8 beats (<30 sec) on cECG, %: (5.3) %
[3]; placebo vs ranolazine
  Polymorphic VT >= 8 beats on cECG, Δ n: 10
  Sustained VT (>=30 sec) on cECG, Δ n: 0
  VT ≧ 3 beats (≧100 b/m) on cECG, Δ n: 347
  VT ≧ 4 beats (≧100 b/m) on cECG, Δ n: 279
  VT ≧ 8 beats (<30 sec) on cECG, Δ n: 99
[3]; ranolazine vs placebo
  Polymorphic VT >= 8 beats on cECG, Δ (%): (−21) %
  VT ≧ 3 beats (≧100 b/m) on cECG, Δ (%): (−17) %
  VT ≧ 4 beats (≧100 b/m) on cECG, Δ (%): (−30) %
  VT ≧ 8 beats (<30 sec) on cECG, Δ (%): (−37) %
[3]; subgroup baseline QTc >450 msec
  Incidence of ventricular tachycardia of >8 beats: 5.6%
[3]; subgroup baseline QTc ≦450 msec
  Incidence of ventricular tachycardia of >8 beats: 5.2%
[3]; subgroup ejection fraction <40%
  Incidence of ventricular tachycardia of >8 beats: 8.8%
[3]; subgroup ejection fraction ≧40%
  Incidence of ventricular tachycardia of >8 beats: 5.3%
[4]; N 2339
  Seattle Angina Questionnaire physical limitation scale score, 25th percentile-75th percentile: 55.6-94.4
  Seattle Angina Questionnaire physical limitation scale score, Mean (SEM): 72.8 (0.5)
  Seattle Angina Questionnaire physical limitation scale score, Median: 77.8
  Seattle Angina Questionnaire physical limitation scale score, Min-Max: 0-100
[4]; N 2558
  Seattle Angina Questionnaire anginal frequency scale score, 25th percentile-75th percentile: 80-100
  Seattle Angina Questionnaire anginal frequency scale score, Mean (SEM): 84.3 (0.4)
  Seattle Angina Questionnaire anginal frequency scale score, Median: 100
  Seattle Angina Questionnaire anginal frequency scale score, Min-Max: 0-100
